# Assay results published in patent US6846928B2, “Compositions useful as inhibitors of protein kinases” (Vertex Pharmaceuticals Incorporated, priority 2002, dated 2005).
row,SMILES,melting point [°C]
1,"c1ccc(-c2nc(Nc3ncc(C4CC4)s3)c3ccccc3n2)cc1 [II-36, (5-Cyclopropyl-thiazol-2-yl)-(2-phenyl-quinazolin-4-yl)-amine]",161 to 162
2,"c1ccc(-c2nc(Nc3nccs3)c3ccccc3n2)cc1 [II-34, (2-Phenyl-quinazolin-4-yl)-(thiazol-2-yl)-amine]",219 to 221
3,"Cc1cnc(Nc2nc(-c3ccccc3)nc3ccccc23)s1 [II-35, (5-Methyl-thiazol-2-yl)-(2-phenyl-quinazolin-4-yl)-amine]",215 to 216
